Assay results taken from ChEMBL document CHEMBL4321815, “Discovery of an Extremely Potent Thiazine-Based β-Secretase Inhibitor with Reduced Cardiovascular and Liver Toxicity at a Low Projected Human Dose” (J Med Chem, 2019).

Columns and labels:
[1] = Unbound brain-to-plasma concentration ratio in Sprague-Dawley rat at 0.5 mg/kg, iv after 30 mins by LC-MS/MS analysis; type: ADME, organism-based; conditions: brain and plasma, read-out: K(p,uu,brain)
[2] = Volume of distribution at steady state in dog at 0.5 mg/kg, iv; type: ADME, organism-based, Canis lupus familiaris; conditions: in vivo, read-out: Vdss
[3] = Tmax in Sprague-Dawley rat at 2.5 mg/kg, po by LC/MS/MS analysis; type: ADME, organism-based; conditions: in vivo
Canis familiaris [4] = test: In vivo inhibition of BACE1 in po dosed Beagle dog assessed as plasma level causing 50% reduction in amyloidbeta42 level in CSF administered as single dose measured after 4 to 49 hrs; type: functional, organism-based; conditions: Canis lupus familiaris
[5] = Cmax in dog at 2.5 mg/kg, po; type: ADME, organism-based, Canis lupus familiaris; design: dose 2.5 mg/kg, route oral; conditions: in vivo
[6] = Metabolic stability in human hepatocytes at 2 uM incubated for 2 hr; type: ADME, cell-based, Hepatocyte; conditions: read-out: Stability
[7] = AUC in mouse at 2.5 mg/kg, po; type: ADME, organism-based; conditions: in vivo
Mus musculus = test: In vivo inhibition of BACE1 in Crl:CD1(ICR) mouse assessed as reduction in amyloidbeta level in brain at 1 mg/kg, po after 2 to 6 hrs by ELISA relative to control; type: functional
Canis familiaris [8] = test: In vivo inhibition of BACE1 in Beagle dog assessed as reduction in amyloidbeta42 level in CSF at 0.08 mg/kg, po administered as single dose measured after 4 to 49 hrs relative to control; type: functional; conditions: Canis lupus familiaris
[9] = Metabolic stability in rat hepatocytes at 2 uM incubated for 2 hr; type: ADME, cell-based, Hepatocyte; conditions: read-out: Stability
Canis familiaris [10] = test: In vivo inhibition of BACE1 in Beagle dog assessed as reduction in amyloidbeta42 level in CSF at 1.25 mg/kg, po administered as single dose measured after 4 to 49 hrs relative to control; type: functional; conditions: Canis lupus familiaris
[11] = AUC in Sprague-Dawley rat at 2.5 mg/kg, po by LC/MS/MS analysis; type: ADME, organism-based; conditions: in vivo
[12] = Volume of distribution at steady state in mouse at 0.5 mg/kg, iv; type: ADME, organism-based; conditions: in vivo, read-out: Vdss
[13] = Toxicity in anesthetized dog assessed as induction of adverse effect at 0.08 to 2.5 mg/kg, iv administered for 5 mins measured after 5 to 30 mins; type: organism-based, Canis lupus familiaris; conditions: in vivo
[14] = Cmax in Sprague-Dawley rat at 1 mg/kg, po by LC/MS/MS analysis; type: ADME, organism-based; design: dose 1 mg/kg, route oral; conditions: in vivo
[15] = Oral bioavailability in dog at 2.5 mg/kg; type: ADME, organism-based, Canis lupus familiaris; conditions: in vivo
[16] = Cmax in Sprague-Dawley rat at 2.5 mg/kg, po by LC/MS/MS analysis; type: ADME, organism-based; design: dose 2.5 mg/kg, route oral; conditions: in vivo
[17] = Toxicity in po dosed Sprague-Dawley rat administered as suspension for 2 weeks; type: organism-based; conditions: in vivo
Canis familiaris [18] = test: In vivo inhibition of BACE1 in po dosed Beagle dog assessed as plasma level causing 80% reduction in amyloidbeta42 level in CSF administered as single dose measured after 4 to 49 hrs; type: functional, Canis lupus familiaris
[19] = Metabolic stability in cynomolgus monkey hepatocytes at 2 uM incubated for 2 hr; type: ADME, cell-based, Macaca fascicularis, Hepatocyte; conditions: read-out: Stability
[20] = Oral bioavailability in mouse at 2.5 mg/kg; type: ADME, organism-based; conditions: in vivo
[21] = AUC in Cynomolgus monkey at 2.5 mg/kg, po by LC/MS/MS analysis; type: ADME, organism-based, Macaca fascicularis; conditions: in vivo
[22] = AUC in dog at 2.5 mg/kg, po; type: ADME, organism-based, Canis lupus familiaris; conditions: in vivo
[23] = Clearance in mouse at 0.5 mg/kg, iv; type: ADME, organism-based; conditions: in vivo
Cathepsin D = Cathepsin D (Homo sapiens, UniProt P07339); test: Inhibition of Cathepsin D (unknown origin)
Sequence of Cathepsin D (P07339 65-162 limits assumed): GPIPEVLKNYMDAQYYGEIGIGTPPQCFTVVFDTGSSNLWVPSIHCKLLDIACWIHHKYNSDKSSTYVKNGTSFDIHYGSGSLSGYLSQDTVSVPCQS
Sequence of Cathepsin D (P07339 169-412 limits assumed): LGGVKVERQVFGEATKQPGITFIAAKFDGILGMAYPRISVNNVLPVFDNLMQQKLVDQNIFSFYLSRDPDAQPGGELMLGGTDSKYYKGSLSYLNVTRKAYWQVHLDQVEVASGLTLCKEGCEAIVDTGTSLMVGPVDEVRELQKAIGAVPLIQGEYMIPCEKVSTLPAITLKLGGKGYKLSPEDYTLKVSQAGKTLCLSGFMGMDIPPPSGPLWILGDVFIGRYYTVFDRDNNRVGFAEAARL

[24] = Tmax in dog at 2.5 mg/kg, po; type: ADME, organism-based, Canis lupus familiaris; conditions: in vivo
[25] = Oral bioavailability in Cynomolgus monkey at 2.5 mg/kg by LC/MS/MS analysis; type: ADME, organism-based, Macaca fascicularis; conditions: in vivo
[26] = Toxicity in anesthetized guinea-pig at 0.19 to 6 mg/kg, iv administered for 5 mins; type: organism-based, Cavia porcellus; conditions: in vivo
[27] = Free drug level in Crl:CD1(ICR) mouse brain at 1 mg/kg, po after 2 to 6 hrs; type: ADME, organism-based; conditions: in vivo
[28] = Half life in Cynomolgus monkey at 0.5 mg/kg, iv by LC/MS/MS analysis; type: ADME, organism-based, Macaca fascicularis; conditions: in vivo
[29] = Cmax in Cynomolgus monkey at 2.5 mg/kg, po by LC/MS/MS analysis; type: ADME, organism-based, Macaca fascicularis; design: dose 2.5 mg/kg, route oral; conditions: in vivo

## C[C@H]1SC(N)=N[C@](C)(c2cc(NC(=O)c3cnc(OCF)cn3)ccc2F)[C@H]1F
[1]
  Kp uu at 0.5 h: 0.95
[2]
  Vd: 2.8 L/kg
[3]
  Tmax: 0.7 h
Canis familiaris [4]
  EC50: 21 nM
[5]
  Cmax: 685 ng/mL
[6]
  remaining at 2 h, 2 µM: 89%
[7]
  AUC: 596 ng·h/mL
Mus musculus
  inhibition in vivo at 1 mg/kg: 55%
Canis familiaris [8]
  inhibition in vivo at 0.08 mg/kg: 50%
[9]
  remaining at 2 h, 2 µM: 74%
Canis familiaris [10]
  inhibition in vivo at 1.25 mg/kg: 80%
[11]
  AUC: 566 ng·h/mL
[12]
  Vd: 7.5 L/kg
[13]
  NOAEL: > 6.9 µg/mL
  fNOAEL: 1.3 µM
[14]
  Cmax: 38.4 ng/mL
[15]
  bioavailability: 95%
[16]
  Cmax: 148 ng/mL
[17]
  NOAEL at 336 h: 250 mg/kg/day
Canis familiaris [18]
  EC80: 100 nM
[19]
  remaining at 2 h, 2 µM: 55%
[20]
  bioavailability: 58%
[21]
  AUC: 429 ng·h/mL
[22]
  AUC: 10400 ng·h/mL
[23]
  clearance: 41 mL/min/kg
Cathepsin D
  IC50: ≥ 100000 nM
[24]
  Tmax: 1.8 h
[25]
  bioavailability: 24%
[26]
  NOAEL: > 6.9 µg/mL
  fNOAEL: 2.4 µM
[27]
  Drug uptake(free): 3 nM
[28]
  half-life: 4.9 h
[29]
  Cmax: 54 ng/mL
